Where two headings read alike, the source gives them in different places.
How the values were obtained:
[1] = molecular target: T1, D4 (Homo sapiens, UniProt P21917); test: PDSP receptor functional assay; format: cell-based
T1 construct: expressed in transfected cells
T1 sequence (P21917 1-419): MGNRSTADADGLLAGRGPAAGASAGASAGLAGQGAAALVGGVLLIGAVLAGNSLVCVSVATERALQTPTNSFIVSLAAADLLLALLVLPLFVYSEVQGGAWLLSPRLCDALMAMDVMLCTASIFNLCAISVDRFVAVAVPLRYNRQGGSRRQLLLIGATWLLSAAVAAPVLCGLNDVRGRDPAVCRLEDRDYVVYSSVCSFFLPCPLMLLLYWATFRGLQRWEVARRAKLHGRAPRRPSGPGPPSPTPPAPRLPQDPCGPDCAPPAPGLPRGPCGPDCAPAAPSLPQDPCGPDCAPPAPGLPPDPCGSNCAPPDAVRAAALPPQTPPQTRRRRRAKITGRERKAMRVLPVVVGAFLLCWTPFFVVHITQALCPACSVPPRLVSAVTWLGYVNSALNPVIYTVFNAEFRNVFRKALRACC

[2] = molecular target: β1-AR (Homo sapiens, UniProt P08588); test: PDSP radioligand competition binding; details: radioligand [^3H]CGP12177; read-out: In vitro Affinity
[3] = tested on: male C57BL/6J mice; test: Catalepsy, inclined screen test; details: for latency to movement: nuciferine 10.0 mg/kg i.p.
[4] = molecular target: T2, hVMAT2 (Homo sapiens, UniProt Q05940); test: Vesicular 3H-DA uptake in vesicles isolated from HEK cells overexpressing VMAT2; format: biochemical
T2 construct: expressed in transfected cells; pcDNA3.1 construct with zeocin resistance

[5] = molecular target: T3, 5-HT2A (Homo sapiens, UniProt P28223); test: PDSP receptor functional assay; format: cell-based
T3 construct: expressed in transfected cells

[6] = molecular target: T4, dopamine D2 receptor (Homo sapiens, UniProt P14416); format: cell-based
T4 construct: expressed in transfected cells; host or cells: HEKT cells (ATCC)

[7] = rats; cited from earlier work
[8] = tested on: C57BL/6J mice; test: Prepulse inhibition, PCP-disrupted; format: in vivo
[9] = molecular target: α2A (Homo sapiens, UniProt P08913); test: PDSP radioligand competition binding; details: radioligand [^3H]Rauwolscine; read-out: In vitro Affinity
[10] = molecular target: T5, 5-HT2B (Homo sapiens, UniProt P41595); test: PDSP radioligand competition binding; details: radioligand [^3H]LSD; read-out: In Vitro Affinity
T5 construct: expressed in transfected cells

[11] = molecular target: T6, 5-HT7 (Homo sapiens, UniProt P34969); test: PDSP radioligand competition binding; details: radioligand [^3H]LSD; read-out: In Vitro Affinity
T6 construct: expressed in transfected cells

[12] = molecular target: 5-HT5A (Homo sapiens, UniProt P47898); test: PDSP radioligand competition binding; details: radioligand [^3H]LSD; read-out: In vitro Affinity
[13] = tested on: hDAT and hVMAT2; test: Whole cell 3H-dopamine uptake in HEK-DAT/VMAT2 cells; details: nuciferine pre-treatment
Protocol: Cell culture: HEK293 cells (ATCC) lines stably expressing hDAT or hDAT and hVMAT2 constructs were cultured at 37°C and 5% CO2 in DMEM with 10% FBS.
Whole cell ^3H-dopamine (DA) uptake: Cells were plated into 48-well plates one day before uptake was performed. […] After incubation, 25 μl uptake buffer containing ^3H-DA and DA was added for a final concentration of 20 nM ^3H-DA and 1 μM DA. Cells were incubated at 37°C for 20 minutes or for the time indicated. Nonspecific uptake was determined in the presence of 10 μM nomifensine. Uptake was terminated by aspirating uptake buffer and washing each well twice with 0.5 ml ice-cold uptake buffer. Cells were lysed in 0.1 N NaOH and transferred to vials containing 3 ml scintillation cocktail. Radioactivity was quantitated using a Beckman LS6500 counter. Data were analyzed in Graph Pad Prism 5.0.

[14] = tested on: male NIH Swiss mice; test: DOI drug discrimination; format: in vivo
[15] = molecular target: T7, 5-HT1A (Homo sapiens, UniProt P08908); test: PDSP radioligand competition binding; details: radioligand [^3H]WAY100635; read-out: In Vitro Affinity
T7 construct: expressed in transfected cells
T7 sequence (P08908 1-422): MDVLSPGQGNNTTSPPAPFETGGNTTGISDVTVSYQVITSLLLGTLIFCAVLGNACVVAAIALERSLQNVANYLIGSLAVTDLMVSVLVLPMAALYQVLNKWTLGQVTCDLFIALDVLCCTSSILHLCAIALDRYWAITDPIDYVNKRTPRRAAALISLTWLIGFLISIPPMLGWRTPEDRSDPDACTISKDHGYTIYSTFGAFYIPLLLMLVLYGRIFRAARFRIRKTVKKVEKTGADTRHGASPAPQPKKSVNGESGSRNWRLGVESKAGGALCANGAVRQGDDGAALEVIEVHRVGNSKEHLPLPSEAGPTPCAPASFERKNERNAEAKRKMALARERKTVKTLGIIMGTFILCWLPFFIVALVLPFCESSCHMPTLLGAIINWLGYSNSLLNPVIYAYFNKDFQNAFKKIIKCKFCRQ

[16] = molecular target: T8, D5 (Homo sapiens, UniProt P21918); test: PDSP radioligand competition binding; details: radioligand [^3H]SCH23390
[17] = molecular target: T9, 5-HT2C (Homo sapiens, UniProt P28335); test: PDSP receptor functional assay; format: cell-based
T9 construct: expressed in transfected cells
T9 sequence (P28335 33-458): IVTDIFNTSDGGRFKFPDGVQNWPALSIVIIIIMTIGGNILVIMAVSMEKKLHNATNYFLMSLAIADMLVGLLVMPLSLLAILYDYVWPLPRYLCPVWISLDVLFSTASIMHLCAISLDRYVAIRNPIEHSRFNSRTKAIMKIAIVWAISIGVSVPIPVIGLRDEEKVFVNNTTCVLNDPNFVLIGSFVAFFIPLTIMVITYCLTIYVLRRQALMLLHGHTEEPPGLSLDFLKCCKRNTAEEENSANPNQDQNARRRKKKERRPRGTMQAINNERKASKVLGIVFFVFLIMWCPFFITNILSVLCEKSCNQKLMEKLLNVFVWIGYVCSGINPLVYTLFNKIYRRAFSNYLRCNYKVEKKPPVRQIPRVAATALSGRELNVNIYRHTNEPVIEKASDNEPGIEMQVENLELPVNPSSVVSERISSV

[18] = molecular target: T5, 5-HT2B; test: PDSP receptor functional assay; format: cell-based
[19] = molecular target: α2C (Homo sapiens, UniProt P18825); test: PDSP radioligand competition binding; details: radioligand [^3H]Rauwolscine; read-out: In vitro Affinity
[20] = molecular target: T7, 5-HT1A; test: PDSP receptor functional assay; format: cell-based
[21] = molecular target: T8, D5; test: PDSP receptor functional assay; format: cell-based

T8 sequence (P21918 whole entry, looked up): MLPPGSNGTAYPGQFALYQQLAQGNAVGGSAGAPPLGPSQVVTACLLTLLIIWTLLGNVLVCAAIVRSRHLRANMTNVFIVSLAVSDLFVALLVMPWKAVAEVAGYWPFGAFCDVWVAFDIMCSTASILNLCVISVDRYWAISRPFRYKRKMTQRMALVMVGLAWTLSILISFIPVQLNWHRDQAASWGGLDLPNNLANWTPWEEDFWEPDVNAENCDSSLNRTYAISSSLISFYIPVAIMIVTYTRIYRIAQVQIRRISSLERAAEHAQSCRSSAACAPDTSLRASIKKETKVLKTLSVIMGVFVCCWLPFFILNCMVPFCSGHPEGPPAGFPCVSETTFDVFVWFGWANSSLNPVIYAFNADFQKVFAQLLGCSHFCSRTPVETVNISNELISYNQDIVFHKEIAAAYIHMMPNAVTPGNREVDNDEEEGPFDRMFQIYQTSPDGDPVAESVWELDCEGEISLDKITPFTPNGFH
T5 sequence (P41595 whole entry, species assumed): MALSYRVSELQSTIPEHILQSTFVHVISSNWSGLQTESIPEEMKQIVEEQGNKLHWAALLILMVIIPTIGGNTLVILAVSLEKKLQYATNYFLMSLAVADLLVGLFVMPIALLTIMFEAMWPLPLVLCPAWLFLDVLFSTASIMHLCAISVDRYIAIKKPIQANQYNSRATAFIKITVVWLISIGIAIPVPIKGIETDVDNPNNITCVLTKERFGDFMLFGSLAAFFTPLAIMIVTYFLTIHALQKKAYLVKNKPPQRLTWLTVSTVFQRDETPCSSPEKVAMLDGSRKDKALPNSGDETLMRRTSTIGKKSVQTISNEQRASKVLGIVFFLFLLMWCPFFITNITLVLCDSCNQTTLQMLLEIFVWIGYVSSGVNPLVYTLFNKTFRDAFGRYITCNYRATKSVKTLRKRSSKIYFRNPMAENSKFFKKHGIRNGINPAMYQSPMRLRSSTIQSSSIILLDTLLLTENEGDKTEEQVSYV
T3 sequence (P28223 whole entry, looked up): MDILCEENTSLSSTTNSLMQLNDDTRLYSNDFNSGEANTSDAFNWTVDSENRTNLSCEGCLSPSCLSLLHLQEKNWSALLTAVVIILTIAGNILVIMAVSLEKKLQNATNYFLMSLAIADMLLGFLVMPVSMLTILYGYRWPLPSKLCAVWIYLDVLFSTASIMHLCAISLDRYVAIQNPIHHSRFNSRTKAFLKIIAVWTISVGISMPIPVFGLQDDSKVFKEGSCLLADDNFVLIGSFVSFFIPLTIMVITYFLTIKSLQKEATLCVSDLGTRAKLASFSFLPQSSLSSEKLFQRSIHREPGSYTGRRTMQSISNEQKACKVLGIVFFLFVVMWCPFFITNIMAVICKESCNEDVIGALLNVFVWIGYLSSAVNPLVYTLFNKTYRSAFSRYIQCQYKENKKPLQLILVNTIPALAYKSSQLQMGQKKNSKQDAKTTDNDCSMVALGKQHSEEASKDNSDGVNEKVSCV
T4 sequence (P14416 whole entry, species assumed): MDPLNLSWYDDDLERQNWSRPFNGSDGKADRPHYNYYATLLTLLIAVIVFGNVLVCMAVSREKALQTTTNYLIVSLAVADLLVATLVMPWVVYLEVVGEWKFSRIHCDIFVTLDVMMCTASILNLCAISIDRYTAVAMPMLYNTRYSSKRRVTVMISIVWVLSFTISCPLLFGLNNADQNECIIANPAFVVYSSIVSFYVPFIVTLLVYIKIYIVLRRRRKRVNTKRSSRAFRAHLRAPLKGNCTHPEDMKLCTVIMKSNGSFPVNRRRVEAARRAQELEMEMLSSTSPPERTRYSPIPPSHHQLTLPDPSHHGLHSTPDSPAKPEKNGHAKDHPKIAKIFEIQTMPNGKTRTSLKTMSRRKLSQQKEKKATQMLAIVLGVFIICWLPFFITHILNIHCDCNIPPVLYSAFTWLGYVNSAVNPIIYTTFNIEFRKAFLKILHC
Chain of α2A (P08913 whole entry): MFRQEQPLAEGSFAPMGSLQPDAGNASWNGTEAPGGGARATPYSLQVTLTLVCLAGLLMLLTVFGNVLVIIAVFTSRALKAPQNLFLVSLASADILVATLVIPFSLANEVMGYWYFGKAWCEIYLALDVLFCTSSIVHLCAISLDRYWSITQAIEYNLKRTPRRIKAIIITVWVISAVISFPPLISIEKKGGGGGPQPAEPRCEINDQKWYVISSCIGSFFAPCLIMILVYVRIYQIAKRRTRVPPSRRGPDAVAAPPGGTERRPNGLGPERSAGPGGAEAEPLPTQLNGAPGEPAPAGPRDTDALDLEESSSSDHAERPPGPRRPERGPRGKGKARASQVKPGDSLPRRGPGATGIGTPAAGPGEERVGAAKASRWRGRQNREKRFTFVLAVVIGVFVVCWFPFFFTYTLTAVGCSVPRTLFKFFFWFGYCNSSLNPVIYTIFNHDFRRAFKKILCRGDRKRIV
Chain of 5-HT5A (P47898 whole entry, species assumed): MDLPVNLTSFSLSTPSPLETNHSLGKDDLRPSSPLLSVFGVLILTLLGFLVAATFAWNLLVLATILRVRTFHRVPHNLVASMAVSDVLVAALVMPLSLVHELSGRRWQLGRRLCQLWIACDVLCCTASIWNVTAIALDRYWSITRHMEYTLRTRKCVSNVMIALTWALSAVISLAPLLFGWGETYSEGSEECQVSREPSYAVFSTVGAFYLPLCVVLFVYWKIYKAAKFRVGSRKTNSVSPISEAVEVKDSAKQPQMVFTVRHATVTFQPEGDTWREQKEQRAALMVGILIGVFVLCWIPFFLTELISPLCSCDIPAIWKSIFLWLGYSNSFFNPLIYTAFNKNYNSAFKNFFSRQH
T6 sequence (P34969 whole entry, species assumed): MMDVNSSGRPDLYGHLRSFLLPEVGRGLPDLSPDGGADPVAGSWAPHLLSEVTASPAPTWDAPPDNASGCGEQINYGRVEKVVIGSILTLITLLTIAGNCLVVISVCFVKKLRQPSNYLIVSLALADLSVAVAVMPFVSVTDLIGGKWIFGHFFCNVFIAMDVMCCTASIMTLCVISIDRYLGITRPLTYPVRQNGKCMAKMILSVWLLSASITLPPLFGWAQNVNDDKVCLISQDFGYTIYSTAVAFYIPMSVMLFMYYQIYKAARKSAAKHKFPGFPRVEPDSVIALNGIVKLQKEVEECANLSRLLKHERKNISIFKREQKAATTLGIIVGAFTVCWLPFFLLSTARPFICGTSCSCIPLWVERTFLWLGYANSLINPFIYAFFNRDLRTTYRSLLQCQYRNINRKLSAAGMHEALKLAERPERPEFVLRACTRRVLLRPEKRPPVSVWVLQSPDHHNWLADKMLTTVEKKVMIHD
T2 sequence (Q05940 whole entry): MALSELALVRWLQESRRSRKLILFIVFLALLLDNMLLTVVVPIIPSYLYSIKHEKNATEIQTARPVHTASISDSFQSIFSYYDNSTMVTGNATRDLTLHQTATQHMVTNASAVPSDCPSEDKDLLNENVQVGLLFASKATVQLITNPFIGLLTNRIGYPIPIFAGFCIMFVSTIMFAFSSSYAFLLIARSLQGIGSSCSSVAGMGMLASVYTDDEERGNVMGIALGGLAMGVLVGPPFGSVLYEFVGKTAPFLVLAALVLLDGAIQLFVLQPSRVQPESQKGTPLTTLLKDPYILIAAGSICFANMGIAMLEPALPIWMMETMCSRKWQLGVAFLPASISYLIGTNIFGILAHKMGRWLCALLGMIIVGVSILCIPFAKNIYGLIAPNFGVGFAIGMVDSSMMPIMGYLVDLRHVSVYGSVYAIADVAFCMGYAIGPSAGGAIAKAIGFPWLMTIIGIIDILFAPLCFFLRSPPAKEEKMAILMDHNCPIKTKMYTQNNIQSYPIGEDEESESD
Chain of α2C (P18825 whole entry): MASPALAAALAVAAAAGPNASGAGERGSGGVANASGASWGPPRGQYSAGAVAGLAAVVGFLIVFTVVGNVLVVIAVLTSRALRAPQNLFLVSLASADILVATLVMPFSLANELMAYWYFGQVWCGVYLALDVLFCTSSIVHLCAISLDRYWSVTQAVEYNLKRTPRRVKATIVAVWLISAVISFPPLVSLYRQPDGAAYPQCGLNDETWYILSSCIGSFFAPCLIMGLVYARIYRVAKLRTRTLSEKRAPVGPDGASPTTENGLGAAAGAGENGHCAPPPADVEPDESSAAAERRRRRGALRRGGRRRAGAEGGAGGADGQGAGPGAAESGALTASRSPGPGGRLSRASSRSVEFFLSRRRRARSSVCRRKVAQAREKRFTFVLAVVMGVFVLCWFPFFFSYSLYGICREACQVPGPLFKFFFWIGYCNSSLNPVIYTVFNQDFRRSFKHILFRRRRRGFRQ
Chain of β1-AR (P08588 whole entry): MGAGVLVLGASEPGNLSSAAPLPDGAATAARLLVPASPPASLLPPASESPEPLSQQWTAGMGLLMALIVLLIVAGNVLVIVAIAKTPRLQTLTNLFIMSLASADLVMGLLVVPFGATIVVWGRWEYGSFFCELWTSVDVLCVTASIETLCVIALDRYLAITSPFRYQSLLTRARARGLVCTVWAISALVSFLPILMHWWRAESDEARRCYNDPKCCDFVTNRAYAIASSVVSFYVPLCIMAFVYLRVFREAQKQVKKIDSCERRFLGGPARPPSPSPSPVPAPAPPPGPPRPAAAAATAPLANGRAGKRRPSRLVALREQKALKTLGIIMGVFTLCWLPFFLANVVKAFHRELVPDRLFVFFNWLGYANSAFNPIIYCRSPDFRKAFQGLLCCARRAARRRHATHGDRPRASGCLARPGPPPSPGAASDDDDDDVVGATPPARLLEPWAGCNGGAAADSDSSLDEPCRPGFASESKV

In the case of `COc1cc2c3c(c1OC)-c1ccccc1C[C@H]3N(C)CC2` [nuciferine], the “Function Type” value [1] is reported as “agonist”, the EC50 ([1]; agonist) is reported as 2000 nM and the Ki [2] is reported as 7150 nM. For the same compound, the catalepsy ([3]; 10.0 mg/kg, any of the time-points examined) was “did not produce catalepsy”, the latency to movement ([3]; 30 min post-injection) was 2.3 ± 2.3 s and the latency to movement ([3]; 60 min post-injection) was 4.7 ± 2.6 s. For the same compound, the “effect on DA uptake in isolated vesicles” value [4] was “no effect”, the “Function Type” value [5] was “Antagonist” and the IC50 ([5]; 5-HT2A antagonist activity) was 478 nM. The EC50 ([5]; antagonist) was 478 nM, the “Function Type” value [6] was “Partial agonist” and the Emax ([6]; D2 partial agonist activity, Fig 4A) was 67 % of dopamine. For the same compound, the “crossing of the blood brain barrier” value [7] was “shown to cross the blood brain barrier”, the “PCP-disrupted PPI” value ([8]; 5 mg/kg i.p. before 6 mg/kg PCP) was “higher PPI than the PCP-vehicle groups” and the “PCP-disrupted PPI” value ([8]; 10 mg/kg i.p. before 6 mg/kg PCP) was “rescued the PCP-disrupted PPI”. For the same compound, the Ki [9] was 1150 nM, the Ki [10] was 41 nM and the Ki [11] was 49.8 nM. The Ki [12] was 1110 nM, the “effect on dopamine uptake in HEK-DAT/VMAT2 cells” value [13] was “no effect” and the “substitution of cumulative DOI doses for the DOI training dose” value ([14]; in the presence of 1.0 mg/kg nuciferine) was “partial substitution”. The “substitution of cumulative DOI doses for the DOI training dose” value ([14]; in the presence of 3.0 mg/kg nuciferine) was “no cumulative dose of DOI substituted for the training dose”, the Ki [15] was 77 nM and the “In Vitro Affinity” value [16] was “(neg) [^3H]SCH23390”. For the same compound, the “Function Type” value [17] was “Antagonist”, the IC50 ([17]; 5-HT2C antagonist) was 131 nM and the EC50 ([17]; antagonist) was 131 nM. The “Function Type” value [18] was “Antagonist”, the IC50 ([18]; 5-HT2B antagonist) was 1000 nM and the EC50 ([18]; antagonist) was 1000 nM. The Ki [19] was 693 nM, the “Function Type” value [20] was “Agonist” and the EC50 ([20]; 5-HT1A agonist, read-out: EC50) was 3200 nM. The EC50 ([20]; agonist, read-out: Functional EC50) was 3230 nM, the EC50 [21] was 2600 nM and the “Function Type” value [21] was “Partial agonist”. The Emax ([21]; partial agonist efficacy, read-out: maximal response) was 50%.

Source: article PMC4786259 (PLoS ONE, 2016)
